From patent publication US10450327B2, “Epidithiodioxopiperazine compound or its derivatives, and the use thereof” (priority 2011, dated 2019) come the findings set out here.

One assay relates to PDGFRβ and PLCγ1. As to the kind of experiment: PDGF-induced signaling, immunoblot, PrxII knocked down HASMCs. The class given is cell-based, human. As for the experimental part:
(§1) The cells were rinsed with an ice-cold phosphate buffered saline (PBS) solution and then lysed in an extraction buffer solution containing 20 mM Hepes (pH 7.0), 1% Triton X-100, 150 mM NaCl, 10% glycerol, 1 mM EDTA, 2 mM EGTA, 1 mM DTT, 5 mM Na3VO4, 5 mM NaF, 1 mM AEBSF, aprotinin (5 μg/ml), and leupeptin (5 μg/ml). After being centrifuged at 12,000×g, the purified cell extracts were used for immunoblotting. In order to adjust the loading, the membranes were stripped by shaking them for 30 minutes at 60° C. in 67 mM Tris (pH 6.7), 2% SDS, and 100 mM 2-mercaptoethanol solution, and reprobed with an appropriate pan antibody.
In addition, the regulatory effects of GT on the PDGFRβ- and VEGFR2-mediated signaling pathway were examined. The GT treatment in HASMCs was quite different from PDGF-induced tyrosine phosphorylation that was enhanced by the PrxII knockdown (FIG. 12a). […] Conversely, the GT treatment in HAECs restored the VEGF-dependent activation of VEGFR2 and ERK that had been diminished by the PrxII knockdown (FIG. 12b). The effects of GT in vascular cell fuction were further validated.
In general terms: A western blot detects proteins with antibodies after separation by electrophoresis.

Assay [1] has as its system Src/ERK, β-catenin, E-cadherin. As to the kind of experiment: Serum-induced signaling and E-cadherin expression, SK28 cells. The class given is cell-based, human. As to the method:
as §1
This proves the peroxidase activity of GT. Again, while GT treatment in the SK28 cells reduced Src/ERK activation and β-catenin phosphorylation, it increased the expression of E-cadherin (FIG. 53B). Furthermore, GT reduced the proliferation and the migration responding to serum stimulation in both SK5 and SK28 cells (FIGS. 53C and D).

The test system of another assay is B16F10 melanoma cells. As to the kind of experiment: Metastasis of B16F10 melanoma cells to lung in mouse. Format: in vivo. As for the experimental part: After B16F10 cells were temporarily transfected with PrxII siRNA for 24 hours and trypsinized, the cells were resuspended in a Hank's balanced salt solution (HBSS). The cell suspension was injected by intravenous injection to a C57/BL6 mouse (1×10^6 cells per mouse). The mouse was sacrified after 10 days, and the lung was removed after transcardia perfusion-fixation with a heparinized saline solution including 3.7% formaldehyde. The removed lung was paraffin embedded and sectioned using a rotary microtome (Leica RM2255). Two serial tissue sections (4 μm in thickness) were stained with haematoxylin and eosin. The melanoma tumor nodules metastasized from the surface of the lung and the HE-stained tissue sections were counted. In order to verify the effects of gliotoxin (GT), chaetocin and chetomin, the melanoma cells were intravenously injected to the C57/BL6 mouse, and then gliotoxin (300 mg/kg) was intraperitoneally injected for 5 times over 10 days.

Assay [2] has as its system PDGFRβ, PLCγ1, VEGFR2 and ERK. In words: PDGF and VEGF signaling in vascular cells from PrxII−/− mouse. Format: cell-based. Conditions: cells separated from PrxII−/− mouse, PDGF-BB or VEGF-A 10 minutes. As to the method:
Aortic vascular smooth muscle (A) and endothelial cells (B) were separated from a normal mouse and a PrxII−/− mouse, and cultured, and then treated with PDGF-BB and VEGF-A for 10 minutes each after either treating with GT or no treating. The activation of PDGFRβ, PLCγ1, VEGFR2 and ERK was analyzed using a phosphorylation-specific binding antibody for each protein.

The next assay deals with SK-MEL-5 (SK5) cells. As to the kind of experiment: Melanoma proliferation and migration assay, SK5. Format: cell-based, human. Conditions: 100 nM, 1 hour pretreatment. As for the experimental part: The extent of cell proliferation was measured using a WST-1 cell proliferation assay kit (Roche Diagnostics, USA) according to the protocol of the manufacturer. The number of cells was expressed as an absorbance value at 450 nm averaged from 3 wells after subtracting the turbidity at 600 nm. The chemotactic transmigration assay was performed in a 24-well Transwell culture chamber (Costar; polycarbonate membrane insert with 8-μm pore size). The bottom of the insert was coated with gelatin B (1 mg/ml) and air-dried for 1 hour. Retroviruses or transfection complexes were treated to melanoma cells (6×10^3). After 24 hours, the infected or transfected melanoma cells were serum-starved for 18 hours. A 20% FBS solution was added to bottom chambers including a basal medium containing 0.5% BSA. The upper chamber wells were each filled with a basal medium including 0.5% BSA. The Transwell chamber was incubated for 12 hours in a 37° C./5% CO2 incubator. After the incubation, the non-migrating cells at the top of the filter were removed. The cells that migrated onto the bottom of filter were fixed and stained with 0.6% hematoxylin and 0.5% eosin. The stained cells were photographed and counted. The number of migrating cells was averaged from 3 wells.

`CN1C(=O)[C@]23CC4=CC=C[C@H](O)[C@H]4N2C(=O)[C@@]1(CO)SS3` [gliotoxin]: in the assay with PDGFRβ and PLCγ1, the “level of PDGFRβ and PLCγ1 activation” value was “diminished to the level of stimulated control group cells”. The “expression of E-cadherin” value in assay [1] is recorded as “increased”. The “Src/ERK activation and β-catenin phosphorylation” value in assay [1] (serum stimulation) was “reduced”. Besides, the “metastasis of B16F10 melanoma cells to lung (tumor nodules)” value in the assay with B16F10 melanoma cells (i.p. 5 times over 10 days after i.v. injection of B16F10 cells) is “significantly reduced”. In addition, the “metastasis of PrxII-knocked down B16F10 to lung” value with B16F10 melanoma cells (mPrx2-1 siRNA-transfected cells, i.p. 5 times over 10 days) is “more significantly reduced”. The “effects on PDGF signaling in VSMC and VEGF signaling in VEC” value in assay [2] is reported as “opposed regulatory effects”. The “proliferation and migration responding to serum stimulation, SK5” value in the assay with SK-MEL-5 (SK5) cells is given as “reduced”.
